Laboratory results as given in the supplement of paper PMC9663587.

Assays:
[1] = compound: CNc1nc(-c2ccc3c(N)n[nH]c3c2)cc(N2C[C@@H](C(=O)NC3CCCCC3)CC[C@H]2C)n1
Flavopiridol = compound: CN1CC[C@H](c2c(O)cc(O)c3c(=O)cc(-c4ccccc4Cl)oc23)[C@H](O)C1 [Flavopiridol]
[2] = compound: CO[C@@H](C)Cn1c(=O)n(C)c2cnc3ccc(-c4cncc(C(C)(C)O)c4)cc3c21
senexin b = compound: CN1CCN(C(=O)c2ccc3cc(CCNc4ncnc5ccc(C#N)cc45)ccc3c2)CC1 [senexin b]
AZD6738 = compound: C[C@@H]1COCCN1c1cc(C2([S@](C)(=N)=O)CC2)nc(-c2cc[nH]c3nccc2-3)n1 [AZD6738]
AZD1775 = compound: C=CCn1c(=O)c2cnc(Nc3ccc(N4CCN(C)CC4)cc3)nc2n1-c1cccc(C(C)(C)O)n1 [AZD1775]
[3] = compound: COc1ccc2c(c1)[C@]1(C[C@H]1c1ccc3c(/C=C/c4ccc(CN5C[C@@H](C)O[C@@H](C)C5)cc4)n[nH]c3c1)C(=O)N2
THZ1 = compound: CN(C)C/C=C/C(=O)Nc1ccc(C(=O)Nc2cccc(Nc3ncc(Cl)c(-c4c[nH]c5ccccc45)n3)c2)cc1 [THZ1]
THZ531 = compound: CN(C)C/C=C/C(=O)Nc1ccc(C(=O)N2CCC[C@@H](Nc3ncc(Cl)c(-c4c[nH]c5ccccc45)n3)C2)cc1 [THZ531]
R0-3306 = compound: C1=CC2=C(C=CC(=C2)C=C3C(=O)NC(=NCC4=CC=CS4)S3)N=C1 [R0-3306]
Rucaparib = compound: CNCc1ccc(-c2[nH]c3cc(F)cc4c3c2CCNC4=O)cc1 [Rucaparib]
LEE011/Ribociclib = compound: CN(C)C(=O)c1cc2cnc(Nc3ccc(N4CCNCC4)cn3)nc2n1C1CCCC1 [LEE011/Ribociclib]
BVD523 = compound: CC(C)Nc1cc(-c2c[nH]c(C(=O)N[C@H](CO)c3cccc(Cl)c3)c2)c(Cl)cn1 [BVD523]
AZD2014 = compound: CNC(=O)c1cccc(-c2ccc3c(N4CCOC[C@@H]4C)nc(N4CCOC[C@@H]4C)nc3n2)c1 [AZD2014]
[4] = compound: CC(=O)c1c(C)c2cnc(Nc3ccc(N4CCNCC4)cn3)nc2n(C2CCCC2)c1=O
Volasertib/BI6727 = compound: CC[C@@H]1C(=O)N(C)c2cnc(Nc3ccc(C(=O)N[C@H]4CC[C@H](N5CCN(CC6CC6)CC5)CC4)cc3OC)nc2N1C(C)C [Volasertib/BI6727]
Torin2 = compound: C1=CC(=CC(=C1)N2C(=O)C=CC3=CN=C4C=CC(=CC4=C32)C5=CN=C(C=C5)N)C(F)(F)F [Torin2]
Taselisib/GDC0032 = compound: Cc1nc(-c2cn3c(n2)-c2ccc(-c4cnn(C(C)(C)C(N)=O)c4)cc2OCC3)n(C(C)C)n1 [Taselisib/GDC0032]
Pictilisib/GDC0941 = compound: CS(=O)(=O)N1CCN(Cc2cc3nc(-c4cccc5[nH]ncc45)nc(N4CCOCC4)c3s2)CC1 [Pictilisib/GDC0941]
INK128/MLN0128 = compound: CC(C)n1nc(-c2ccc3oc(N)nc3c2)c2c(N)ncnc21 [INK128/MLN0128]
Ipatasertib/GDC0068 = compound: CC(C)NC[C@@H](C(=O)N1CCN(c2ncnc3c2[C@H](C)C[C@H]3O)CC1)c1ccc(Cl)cc1 [Ipatasertib/GDC0068]
AZD7762 = compound: NC(=O)Nc1cc(-c2cccc(F)c2)sc1C(=O)N[C@H]1CCCNC1 [AZD7762]
Tivantinib/ARQ197 = compound: O=C1NC(=O)[C@@H](c2cn3c4c(cccc24)CCC3)[C@@H]1c1c[nH]c2ccccc12 [Tivantinib/ARQ197]
TGX221 = compound: CC1=CN2C(=O)C=C(N=C2C(=C1)C(C)NC3=CC=CC=C3)N4CCOCC4 [TGX221]
Alpelisib/BYL719 = compound: Cc1nc(NC(=O)N2CCC[C@H]2C(N)=O)sc1-c1ccnc(C(C)(C)C(F)(F)F)c1 [Alpelisib/BYL719]
Olaparib/AZD2281 = compound: O=C(c1cc(Cc2n[nH]c(=O)c3ccccc23)ccc1F)N1CCN(C(=O)C2CC2)CC1 [Olaparib/AZD2281]
[5] = compound: CC(=O)Nc1cccc(-n2c(=O)n(C3CC3)c(=O)c3c(Nc4ccc(I)cc4F)n(C)c(=O)c(C)c32)c1
Doxorubicin = compound: COc1cccc2c1C(=O)c1c(O)c3c(c(O)c1C2=O)C[C@@](O)(C(=O)CO)C[C@@H]3O[C@H]1C[C@H](N)[C@H](O)[C@H](C)O1 [Doxorubicin]
Cediranib/AZD2171 = compound: COc1cc2c(Oc3ccc4[nH]c(C)cc4c3F)ncnc2cc1OCCCN1CCCC1 [Cediranib/AZD2171]
ABT-737 = compound: CN(C)CC[C@H](CSc1ccccc1)Nc1ccc(S(=O)(=O)NC(=O)c2ccc(N3CCN(Cc4ccccc4-c4ccc(Cl)cc4)CC3)cc2)cc1[N+](=O)[O-] [ABT-737]
[6] = compound: CCC1=CN=CN=C1N2CCN(CC2)CC3=NC4=C(N3)C=C(C=C4)C(F)(F)F
[7] = compound: Cc1nn(C)c(COc2ccc(N3CCN(S(=O)(=O)N(C)C)CC3)cc2)c1-c1cccc2c(CCCOc3cccc4ccccc34)c(C(=O)O)n(CCN3CCOCC3)c12
Neratinib/HKI272 = compound: CCOc1cc2ncc(C#N)c(Nc3ccc(OCc4ccccn4)c(Cl)c3)c2cc1NC(=O)/C=C/CN(C)C [Neratinib/HKI272]
Dasatinib = compound: Cc1nc(Nc2ncc(C(=O)Nc3c(C)cccc3Cl)s2)cc(N2CCN(CCO)CC2)n1 [Dasatinib]
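Also: breast cancer and non-malignant breast epithelial cell lines, Deep Dye Drop or Dye Drop imaging, nine half-log doses, GR normalized to time-zero plates and DMSO-only controls.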

Cell Line | GR50, 72 h [1] [µM] | GR50, 72 h (Flavopiridol) [µM] | GR50, 72 h [2] [µM] | GR50, 72 h (senexin b) [µM] | GR50, 72 h (AZD6738) [µM] | GR50, 72 h (AZD1775) [µM] | GR50, 72 h [3] [µM] | GR50, 72 h (THZ1) [µM] | GR50, 72 h (THZ531) [µM] | GR50, 72 h (R0-3306) [µM] | GR50, 72 h (Rucaparib) [µM] | GR50, 72 h (LEE011/Ribociclib) [µM] | GR50, 72 h (BVD523) [µM] | GR50, 72 h (AZD2014) [µM] | GR50, 72 h [4] [µM] | GR50, 72 h (Volasertib/BI6727) [µM] | GR50, 72 h (Torin2) [µM] | GR50, 72 h (Taselisib/GDC0032) [µM] | GR50, 72 h (Pictilisib/GDC0941) [µM] | GR50, 72 h (INK128/MLN0128) [µM] | GR50, 72 h (Ipatasertib/GDC0068) [µM] | GR50, 72 h (AZD7762) [µM] | GR50, 72 h (Tivantinib/ARQ197) [µM] | GR50, 72 h (TGX221) [µM] | GR50, 72 h (Alpelisib/BYL719) [µM] | GR50, 72 h (Olaparib/AZD2281) [µM] | GR50, 72 h [5] [µM] | GR50, 72 h (Doxorubicin) [µM] | GR50, 72 h (Cediranib/AZD2171) [µM] | GR50, 72 h (ABT-737) [µM] | GR50, 72 h [6] [µM] | GR50, 72 h [7] [µM] | GR50, 72 h (Neratinib/HKI272) [µM] | GR50, 72 h (Dasatinib) [µM]
PDX1206 | 1.86 | 0.0514 | 0.00134 | 1.18 | 4.6 | 0.313 | 0.00708 | 0.0255 | 0.0456 | 3.6 | > 10 | > 10 | > 10 | < 0.001 | – | – | – | – | – | – | – | – | – | – | – | – | – | – | – | – | – | – | – | –
SUM44PE | 4.21 | 0.0276 | < 0.001 | 1.77 | 0.549 | 0.237 | 0.000792 | 0.00443 | 0.0499 | 1.91 | > 10 | 2.54 | 2.7 | 0.00197 | 0.212 | 0.00884 | 0.00502 | 0.00347 | 0.435 | 0.0102 | 0.27 | 0.0479 | 0.0449 | > 10 | 0.65 | > 10 | > 1 | 0.0211 | 9.59 | 4.3 | 6.53 | 3.31 | 0.0248 | –
SUM149 | > 10 | 0.196 | 1.55 | > 10 | 3.87 | 0.0722 | 0.00332 | 0.0493 | 0.345 | 4.86 | > 10 | > 10 | 1.96 | 1.92 | – | 0.012 | 0.142 | 2.55 | 6.06 | 0.163 | 4.56 | 0.0774 | 0.281 | > 10 | > 10 | 3.87 | 0.0112 | 0.00797 | 5.18 | 3.63 | > 10 | 5.97 | 0.0697 | 0.0931
ZR7530 | – | 0.192 | – | 1.48 | > 10 | 1.91 | 0.00327 | 0.0259 | 0.0583 | 6.17 | > 10 | 0.692 | > 10 | 0.00146 | 0.0889 | 0.00621 | 0.0216 | 0.0102 | 0.217 | 0.0153 | 2.4 | 1.12 | 0.554 | > 10 | 0.246 | > 10 | 0.0361 | 0.0148 | 7.57 | > 10 | 5.13 | > 10 | 0.000681 | 0.372
